Molecular target: T1, CXCR4 (Homo sapiens, UniProt P61073)
T1 construct: a human T cell strain in which CXCR4 is known to be expressed; endogenous in cells; host or cells: CEM cells (human T cell strain)
Experiment: Study for inhibition of binding human SDF-1 to CEM cells
Conditions: human T cell strain CEM cells, 125I-SDF-1, 4° C. for 60 minutes
Text: As mentioned above, a more direct procedure is a screening a compound that prevents for HIV from binding to CXCR4, which is a receptor on CD4+ cell, on an assay system using HIV. However, using HIV for a large-scale screening is not practical due to its difficult handling. On the other hand, both of T cell-directed (X4) HIV-1 and SDF-1 bind to CXCR4 and therefore CXCR4 binding sites at both of HIV-side and SDF-1-side as well as SDF-1- and HIV-binding sites at the CXCR4 side may presumably have any common characteristics. […]
To human T cell strain CEM cells in a binding buffer (containing HEPES and BSA), the test compound and ^125I-SDF-1 (NEN) were added and the mixture was incubated at 4° C. for 60 minutes. […] An amount of the radioactivity bound to the CEM cells was measured using Top Count (Packard) and inhibition (%) of the test compound was calculated according to the following equation: Inhibition=(Et−Ea)/(Et−Ec)×100
Et: amount of radioactivity when the test compound is not added,
Ec: amount of radioactivity when non-radioactive SDF-1 (Pepro Tech) is added in an amount of 1000 times as much as ^125I-SDF-1 as a test compound, and
Ea: amount of radioactivity when the test compound is added.

T1 sequence (P61073 whole entry): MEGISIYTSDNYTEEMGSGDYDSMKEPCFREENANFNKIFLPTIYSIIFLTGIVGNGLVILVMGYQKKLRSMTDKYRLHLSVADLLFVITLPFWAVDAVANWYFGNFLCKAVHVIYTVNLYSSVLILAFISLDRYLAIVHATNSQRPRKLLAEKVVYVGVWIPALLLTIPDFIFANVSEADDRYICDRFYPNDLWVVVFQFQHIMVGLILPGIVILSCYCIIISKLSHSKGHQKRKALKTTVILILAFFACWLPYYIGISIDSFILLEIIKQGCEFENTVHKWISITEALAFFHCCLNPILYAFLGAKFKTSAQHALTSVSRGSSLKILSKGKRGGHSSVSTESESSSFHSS

IC50: 1.6 nM
SMILES: NCCC[C@@H]1[C@@H](Nc2nccc(N3CCCCCC3)n2)CCN1C1CCCCC1 [compound 10-2, N-[(2R,3S)-2-(3-aminopropyl)-1-cyclohexyl-3-pyrrolidinyl]-4-(1-azepanyl)-2-pyrimidinamine]
